Laboratory results as given in BindingDB's records for patent US20230357269 (Les Laboratoires Servier, 2023).
pIC50: −log10 of the molar value.

Target: Leucine-rich repeat serine/threonine-protein kinase 2 (Homo sapiens, UniProt Q5S007)
Experiment: LRRK2 Kinase Activity Assay
Description: LRRK2 Kinase reactions were carried out in 384-well white polystyrene plates in a final volume of 6 μl using ADP-Glo Kinase Assay kit (Promega Corp.). Compound and substrates (LRRKtide peptide and ATP) in assay buffer were first dispensed in wells. Kinase reaction was then started by the addition of human recombinant LRRK2 protein. After 1h-incubation at 37 C., the enzymatic reaction was stopped by the addition of 6 μl of ADP-Glo Reagent-1 and an additional 40-minutes incubation at 23 C. (residual ATP depletion). A final 30-minutes incubation after 12 μL reagent-2 addition (ADP to ATP conversion and luciferin/luciferase reaction) was performed before luminescent signal acquisition (EnVision multimode plate reader-PerkinElmer, Inc.). Data from 10 individual concentrations of tested compounds (N=2) were fitted (XLfit -ID Business Solutions Ltd) to deliver IC50s (compound concentration leading to 50% inhibition of reference enzymatic activity).

Leucine-rich repeat serine/threonine-protein kinase 2, sequence (Q5S007 whole entry): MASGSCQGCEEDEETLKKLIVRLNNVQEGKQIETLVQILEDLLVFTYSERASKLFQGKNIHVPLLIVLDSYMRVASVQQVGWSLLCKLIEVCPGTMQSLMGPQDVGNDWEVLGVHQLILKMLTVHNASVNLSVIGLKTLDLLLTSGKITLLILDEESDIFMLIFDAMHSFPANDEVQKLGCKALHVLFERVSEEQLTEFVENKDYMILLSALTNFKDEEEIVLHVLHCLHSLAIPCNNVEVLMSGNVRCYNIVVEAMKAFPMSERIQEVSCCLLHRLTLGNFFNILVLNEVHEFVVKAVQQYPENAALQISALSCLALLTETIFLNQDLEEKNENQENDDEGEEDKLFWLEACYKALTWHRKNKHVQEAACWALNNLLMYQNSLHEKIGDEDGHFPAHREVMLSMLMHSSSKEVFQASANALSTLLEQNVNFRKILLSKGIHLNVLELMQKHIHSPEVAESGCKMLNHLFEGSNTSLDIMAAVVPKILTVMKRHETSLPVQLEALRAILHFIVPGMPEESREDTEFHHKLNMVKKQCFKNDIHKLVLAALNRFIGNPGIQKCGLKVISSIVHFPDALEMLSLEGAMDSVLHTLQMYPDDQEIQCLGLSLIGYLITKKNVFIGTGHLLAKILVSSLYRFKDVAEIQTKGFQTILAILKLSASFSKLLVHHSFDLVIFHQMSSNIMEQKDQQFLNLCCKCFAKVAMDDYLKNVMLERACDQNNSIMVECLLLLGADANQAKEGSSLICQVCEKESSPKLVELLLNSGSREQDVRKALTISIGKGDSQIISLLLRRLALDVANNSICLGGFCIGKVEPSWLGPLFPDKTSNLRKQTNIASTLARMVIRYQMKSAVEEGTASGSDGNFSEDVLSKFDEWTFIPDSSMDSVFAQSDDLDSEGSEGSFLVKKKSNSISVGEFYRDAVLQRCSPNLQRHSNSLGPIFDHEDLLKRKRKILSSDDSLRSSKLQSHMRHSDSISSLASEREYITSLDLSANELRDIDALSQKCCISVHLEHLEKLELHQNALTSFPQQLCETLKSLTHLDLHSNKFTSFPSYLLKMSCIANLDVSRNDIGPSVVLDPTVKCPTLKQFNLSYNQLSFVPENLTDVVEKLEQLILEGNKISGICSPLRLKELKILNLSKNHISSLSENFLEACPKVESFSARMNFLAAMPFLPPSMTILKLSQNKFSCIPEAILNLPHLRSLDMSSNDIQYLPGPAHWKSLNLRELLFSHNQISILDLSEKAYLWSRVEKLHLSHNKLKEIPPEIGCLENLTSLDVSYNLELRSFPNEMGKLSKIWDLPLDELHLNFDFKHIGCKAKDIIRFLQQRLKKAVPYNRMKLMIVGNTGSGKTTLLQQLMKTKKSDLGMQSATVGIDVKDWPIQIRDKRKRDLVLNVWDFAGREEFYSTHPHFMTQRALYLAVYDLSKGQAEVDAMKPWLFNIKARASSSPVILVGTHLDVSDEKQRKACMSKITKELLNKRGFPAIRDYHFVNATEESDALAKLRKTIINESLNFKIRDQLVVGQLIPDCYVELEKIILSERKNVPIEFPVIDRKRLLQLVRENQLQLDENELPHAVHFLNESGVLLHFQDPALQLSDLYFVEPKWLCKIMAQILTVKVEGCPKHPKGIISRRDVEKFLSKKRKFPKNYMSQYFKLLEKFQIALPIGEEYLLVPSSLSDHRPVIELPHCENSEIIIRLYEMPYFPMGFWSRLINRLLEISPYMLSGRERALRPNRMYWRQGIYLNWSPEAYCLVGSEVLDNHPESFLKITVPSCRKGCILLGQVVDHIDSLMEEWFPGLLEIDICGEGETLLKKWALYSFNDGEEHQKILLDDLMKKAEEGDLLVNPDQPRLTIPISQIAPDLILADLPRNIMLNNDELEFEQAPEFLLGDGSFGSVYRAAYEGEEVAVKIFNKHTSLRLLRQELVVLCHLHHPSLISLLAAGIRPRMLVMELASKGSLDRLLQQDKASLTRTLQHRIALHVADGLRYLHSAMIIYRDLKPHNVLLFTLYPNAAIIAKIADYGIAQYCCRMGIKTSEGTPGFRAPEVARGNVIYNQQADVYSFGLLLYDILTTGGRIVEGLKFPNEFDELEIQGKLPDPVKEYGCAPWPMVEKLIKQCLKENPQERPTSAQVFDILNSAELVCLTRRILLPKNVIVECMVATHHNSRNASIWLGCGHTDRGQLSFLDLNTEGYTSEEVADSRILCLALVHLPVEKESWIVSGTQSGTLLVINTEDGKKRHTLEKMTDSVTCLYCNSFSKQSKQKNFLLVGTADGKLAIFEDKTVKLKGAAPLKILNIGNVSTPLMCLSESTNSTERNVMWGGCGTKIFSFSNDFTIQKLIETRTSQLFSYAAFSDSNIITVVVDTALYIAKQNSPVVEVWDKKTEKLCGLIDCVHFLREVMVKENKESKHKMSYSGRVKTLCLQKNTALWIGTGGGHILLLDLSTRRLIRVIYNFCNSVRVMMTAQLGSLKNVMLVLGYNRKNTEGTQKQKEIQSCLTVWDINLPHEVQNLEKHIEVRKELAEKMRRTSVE

Compound `O=C1NCCCOc2ccc3[nH]nc(c3c2)-c2cc(Br)cc(c2)CO1` [US20230357269, Example 9] has a pIC50 of over 8.00.
`O=C1NCCCOc2ccc3[nH]nc(c3c2)-c2ccc(Br)c(c2)CO1` [US20230357269, Example 30] gave a pIC50 of over 8.00.
